What was measured:
[1] = system: tyrosine hydroxylase expression in CHP-212 cells; experiment: Restoration of tyrosine hydroxylase expression by HDAC inhibitors in CHP-212 cells transfected with DJ-1 siRNA (western blot); type: cell-based, human; conditions: for reversal of tyrosine hydroxylase inhibition caused by DJ-1 inactivation (in words): CHP-212 cells transfected with DJ-1 siRNA/RNAi
Excerpt: Various acetylated histone species from CHP-212 cells transfected with control or DJ-1 RNAi for 4 days were immunoprecipitated with specific antibodies, and amplified with primers specifically for the human tyrosine hydroxylase promoter using semi-quantitative PCR. Reactions were stopped at indicated PCR cycles for gel analysis. Input: 0.5% of input DNA before IP. The inhibition of endogenous tyrosine hydroxylase and DJ-1 by the DJ-1-specific siRNA for the ChIP assays was confirmed by Western blots. […] after the transfection of control (CTR) or DJ-1 RNAi constructs, CHP-212 cells were treated with increasing amount of sodium butyrate for additional 88 hours before harvesting, with 2 changes of fresh medium containing sodium butyrate during the course of the experiment. […] The protein levels of TH, DJ-1 and β-actin were determined by western blotting.
To validate the role of histone acetylation in DJ-1-mediated regulation of the human tyrosine hydroxylase promoter, CHP-212 cells were transfected with control or DJ-1-specific siRNA. ChIP assays were performed with antibodies that specifically recognize acetylated histones, and the human tyrosine hydroxylase promoter sequences were amplified using semi-quantitative PCR. Consistent with the concurrent inhibition of the tyrosine hydroxylase protein expression, DJ-1 inactivation caused a decrease in the amount of tyrosine hydroxylase promoter-associated acetylated histones, indicating transcriptional silencing (FIG. 6A). Since DJ-1 acted as a transcriptional co-activator eventually promoting histone acetylation, it was likely that chemical inhibitors of HDAC would reverse the effects of DJ-1 inactivation. Therefore, CHP-212 cells were pre-transfected with control or DJ-1-specific siRNA, and the cells were treated with increasing amounts of the HDAC inhibitor sodium butyrate. Sodium butyrate restored tyrosine hydroxylase expression (to 88% of the levels in the control at 0.2 mM) even in the presence of DJ-1 siRNA (FIG. 6B). […]

histone acetylation = experiment: Histone acetylation in CHP-212 cells by western blotting; type: cell-based, human; conditions: data not shown

| Structure (SMILES) | reversal of tyrosine hydroxylase inhibition caused by DJ-1 inactivation (in words) [1] | tyrosine hydroxylase expression restored, relative to the levels in the control ([1]; 0.2 mM, CHP-212 cells in the presence of DJ-1 siRNA, western blot) | histone acetylation (in words) (histone acetylation) |
| --- | --- | --- | --- |
| CC(/C=C/C(=O)NO)=C\[C@@H](C)C(=O)c1ccc(N(C)C)cc1 [trichostatin A] | similarly reversed the tyrosine hydroxylase inhibition |  |  |
| CCCC(=O)[O-].[Na+] [sodium butyrate] | restoration of tyrosine hydroxylase expression | 88 % of the levels in the control | increased histone acetylation |

Reference: patent publication US20090023794A1, “Use of Sumoylation Inhibitors for the Treatment of Neurodegenerative Disease” (Caritas St. Elizabeth Medical Center of Boston, Inc., priority 2005, published 2009)
